Results published in paper PMC9158266, “Ethacrynic acid is an inhibitor of human factor XIIIa” (BMC Pharmacology & Toxicology, 2022).

Target: T1, human factor XIIIa (FXIIIa) (Homo sapiens, UniProt P00488)
T1 construct: gene F13A1
T1 sequence (P00488 39-732): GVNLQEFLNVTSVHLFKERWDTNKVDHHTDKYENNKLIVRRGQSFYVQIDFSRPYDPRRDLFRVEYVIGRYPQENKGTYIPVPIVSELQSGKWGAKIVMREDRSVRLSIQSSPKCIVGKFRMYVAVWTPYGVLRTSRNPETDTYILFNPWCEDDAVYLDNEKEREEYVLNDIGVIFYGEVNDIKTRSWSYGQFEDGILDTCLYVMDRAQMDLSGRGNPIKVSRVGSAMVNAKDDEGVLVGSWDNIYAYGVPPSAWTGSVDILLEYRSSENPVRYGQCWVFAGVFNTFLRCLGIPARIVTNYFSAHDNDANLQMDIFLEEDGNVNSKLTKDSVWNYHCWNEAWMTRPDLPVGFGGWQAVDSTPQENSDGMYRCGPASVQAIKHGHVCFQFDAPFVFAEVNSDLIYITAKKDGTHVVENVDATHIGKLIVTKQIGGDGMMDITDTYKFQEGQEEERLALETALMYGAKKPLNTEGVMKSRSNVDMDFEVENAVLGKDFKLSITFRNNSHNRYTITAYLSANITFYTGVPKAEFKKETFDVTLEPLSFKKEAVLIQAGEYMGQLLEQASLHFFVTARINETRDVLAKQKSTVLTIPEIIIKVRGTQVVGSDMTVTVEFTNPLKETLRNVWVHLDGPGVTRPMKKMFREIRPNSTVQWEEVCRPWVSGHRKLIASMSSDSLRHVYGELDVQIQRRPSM
Assay: bisubstrate fluorescence trans-glutamination assay (dansylcadaverine / N,N-dimethylcasein)
Format: biochemical

IC50: 106 ± 32.5 µM
Structure (SMILES): C=C(CC)C(=O)c1ccc(OCC(=O)O)c(Cl)c1Cl [compound 1, Ethacrynic acid]
